Results from patent US8394763B2, “Cyclic undecapeptides and derivatives as multiple sclerosis therapies” (Oregon Health & Science University, priority 2007, dated 2013).

How the values were obtained:
[1] = system: EAE in C57BL/6 (B6) female mice; experiment: Clinical course of EAE, treatment begun prior to disease onset (day 10); type: in vivo, C57BL/6 (B6) mice; conditions: for mean total EAE score: vehicle control 99
Procedure: EAE was induced in C57BL/6 (B6) female mice by immunization with 200 μg of MOG 35-55 peptide in complete Freund's adjuvant containing 400 μg of Mycobacterium tuberculosis per mouse by subcutaneous injection. Pertussis toxin was administered intraperitoneally at day 0 (25 ng per mouse) and day 2 (66 ng per mouse) after immunization. […] Mice were examined for signs of EAE daily, blinded to treatment status. EAE was scored by using a 9 point scale (0, no paralysis; 1, limp tail with minimal hind limb weakness; 2, mild hind limb weakness; 3, moderate hind limb weakness; 4, moderately severe hind limb weakness; 5, severe hind limb weakness; 6, complete hind limb paralysis; 7, hind limb paralysis with mild forelimb weakness; 8, hind limb paralysis with moderate forelimb weakness; and 9, hind limb paralysis with severe forelimb weakness).

[2] = system: Splenocytes or lymphocytes; experiment: Proliferation of splenocytes or lymphocytes from treated immunized mice in response to MOG 35-55 peptide; type: in vivo, B6 mice; conditions: mice treated with 20 mg/kg/day, compared with vehicle
[3] = system: EAE in B6 mice; experiment: Repair of injured axons: NF-P immunostaining at day 40, treatment from day 15; type: in vivo
Text: B6 mice were immunized with MOG 35-55 peptide as described in Example 2. […] The two treatment groups were perfused on day 40 post-immunization and sections of their spinal cords were immunostained for NF-P.

[4] = system: lymph node cells; experiment: Proliferation of lymph node cells to MOG 35-55 peptide, [3H]thymidine incorporation; type: cell-based, C57BL/6 (B6) mice; conditions: 25 μg/ml MOG 35-55 peptide; equimolar concentrations of both compounds; vs MOG 35-55 peptide alone
[5] = system: EAE in C57BL/6 mice; experiment: CD4 and CD11b immunostaining of spinal cord of EAE mice; type: in vivo; conditions: 20 mg/kg/day s.c. from day 15, day 34 to 40
Text: EAE was induced in C57BL/6 mice by immunization with […] as described in Example 2. […] Mice received therapy by daily subcutaneous injection. Mice were euthanized at day 34 to 40 post-immunization by perfusion with 4% paraformaldehyde and spinal cords were removed for immunohistochemical staining and quantitative analysis. Spinal cord sections were stained with anti-CD4 (lymphocyte) or anti-CD11b (monocyte/macrophage lineage) antibodies and quantified following image capture on a laser scanning confocal microscope.

[6] = system: EAE in B6 mice; experiment: Reversal of paralysis in EAE, treatment begun day 15 after onset; type: in vivo; conditions: 20 mg/kg daily from day 15
Text: EAE was induced in B6 mice as described in Example 2. Mice developed signs of EAE 10-12 days following immunization with MOG 35-55 peptide. […] Mice were scored daily for EAE, blinded to treatment status.

[7] = system: Mice with induced EAE; experiment: White matter tissue damage in thoracic spinal cord of EAE mice (toluidine blue); type: in vivo; conditions: vs vehicle
Procedure: Mice with induced EAE were deeply anesthetized with isoflurane, heparinized, and perfused with 5% gluteraldehyde, and spinal cords were dissected as described in Masliah et al., Am. J. Pathol. 142:871-882, 1993. Tissue samples were post-fixed with 1% osmium. Semithin sections (0.5 μm) were stained with toluidine blue and photographed at 25× magnification. The percentage of the spinal cord showing damage was determined in the ventrolateral and dorsal thoracic cord. Photomontages (final magnification 100×) of the entire spinal cord and areas containing damaged fibers were measured using a SummaSketch 111 (Summagraphics, Fairfield, Conn.) digitizing tablet and BIOQUANT Classic 95 software (R & M Biometrics, Nashville, Tenn.). Measurements were taken of the total area (damaged and nondamaged) and the cumulative percentage area of lesions was calculated.

[8] = system: Mice with induced EAE; experiment: Phosphorylated neurofilament (NF-P) immunostaining of spinal cord of EAE mice, dose groups; type: in vivo; conditions: vehicle 24%
Procedure: Mice with induced EAE were perfused with 4% paraformaldehyde and 1- to 2-mm lengths of spinal cord were processed for sectioning as described in Masliah et al. Spinal cord sections were blocked and stained with anti-phosphorylated NF, SMI312 (Sternberger Monoclonals, Lutherville, Md.). Following incubation in goat anti-mouse secondary antibody and incubation in mouse peroxidase-antiperoxidase, immunoreactivity was visualized with 0.05% diaminobenzidine tetrahydrochloride/0.01% hydrogen peroxide, examined by light microscopy and photographed and analyzed as described for assessing white matter tissue damage. Statistical significance was determined by using one-way ANOVA followed by Newman-Keuls multiple comparisons tests (WINKS 4.62 professional edition; Texasoft, Dallas, Tex.); significance was defined as p<0.05.

[9] = target: CypA (Homo sapiens, UniProt P62937); conditions: see U.S. Pat. No. 6,927,208 and WO 2006/038088; cited from earlier work
[10] = 20 mg/kg, vs vehicle treated mice

Sequence of CypA (P62937 whole entry, species assumed): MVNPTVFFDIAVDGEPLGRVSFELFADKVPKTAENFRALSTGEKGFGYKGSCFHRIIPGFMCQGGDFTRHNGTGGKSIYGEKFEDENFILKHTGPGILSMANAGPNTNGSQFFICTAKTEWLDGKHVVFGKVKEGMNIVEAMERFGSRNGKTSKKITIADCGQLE

Cyclo[L-alanyl-D-alanyl-N-methyl-L-leucyl-N-methyl-L-leucyl-N-methyl-L-valyl-(2S,3R,4R,6E)-3-hydroxy-4-methyl-2-methylamino-6-octenoyl-(2S)-2-aminobutanoyl-N-methyl-D-alanyl-N-ethyl-L-valyl-L-valyl-N-methyl-L-leucyl] [[D-MeAla]^3-[EtVal]^4-CsA]
mean total EAE score ([1]; 1 mg/kg/day from day 10): 53 | mean total EAE score ([1]; 5 mg/kg/day from day 10): 25 | onset of disease [1, 10]: significantly delayed | severity of peak disease [1, 10]: reduced | mean total EAE score ([1]; 20 mg/kg/day from day 10): 12 | recovery over the course of the experiment ([1]; all doses (1, 5, 20 mg/kg), in contrast to vehicle): completely recovered | proliferation of splenocytes or lymphocytes in response to MOG 35-55 peptide [2]: no differences in proliferation | reduced NF-P staining, share of dorsal spinal cord ([3]; 20 mg/kg daily from day 15, read at day 40, day 15 untreated 9%, vehicle 4.7%): 1.7% | reduced NF-P staining, share of ventrolateral spinal cord ([3]; 20 mg/kg daily from day 15, read at day 40, day 15 untreated 14%, vehicle 20%): 7% | improvement in expression of NF-P within axons ([3]; 20 mg/kg daily, day 40 vs day 15): ≥ 50% | proliferative capacity of lymph node cells, MOG 35-55 peptide stimulated [4]: did not significantly alter | percentage area stained by anti-CD4, spinal cord ([5]; no treatment 0.86%, vehicle 0.74%, not significant): 0.61% | CD11b cells, percentage of white matter ([5]; no treatment 6.64%, vehicle 5.83%, p=0.05 vs vehicle): 3.94% | clinical course of paralysis [6]: progressive improvement, eventually returning to nearly normal | mean total EAE score ([6]; vehicle 116, p=0.0006): 75 | reduction of tissue damage, dorsal thoracic cord ([7]; 1 mg/kg/day): 50% | reduction of tissue damage, ventrolateral thoracic cord ([7]; 1 mg/kg/day): 40% | reduction of tissue damage, dorsal thoracic cord ([7]; 5 mg/kg/day): 69% | reduction of tissue damage, ventrolateral thoracic cord ([7]; 5 mg/kg/day): 76% | reduction of tissue damage, dorsal thoracic cord ([7]; 20 mg/kg/day): 81% | reduction of tissue damage, ventrolateral thoracic cord ([7]; 20 mg/kg/day): 86% | mean area of loss of NF-P staining, lateral/ventral thoracic spinal cord ([8]; 1 mg/kg): 14.5% | mean area of loss of NF-P staining, lateral/ventral thoracic spinal cord ([8]; 5 mg/kg): 3% | mean area of loss of NF-P staining, lateral/ventral thoracic spinal cord ([8]; 20 mg/kg): 1.5%

[EtPhe(4-CH2PO(OMe)2)]^4-CsA
apparent Ki for CypA activity compared with CsA [9]: less than the Ki of CsA
